Assay [1] has as its system HA on virus particle (Neth09H1N1). In kind it is binding, Influenza virus A/Netherlands/602/2009 (Neth09H1N1).
The subject of assay [2] is Neth09H1N1 virus infection of MDCK cells. It is filed as cell-based, Influenza virus A/Netherlands/602/2009 (Neth09H1N1).
In assay [3] the target is NA of the whole Neth09H1N1 virus (Influenza A virus, UniProt C3PSV3). In kind it is biochemical, Influenza virus A/Netherlands/602/2009 (Neth09H1N1). Particulars: for IC50: read-out: inhibition of NA of the whole virus in enzymatic MUNANA assay (IC50 μM).
Assay [4] has as its target Recombinant soluble N9 protein (N9 Spain) neuraminidase tetramer (Influenza A virus, UniProt K9MBB0). It is filed as biochemical, Influenza A virus A/Anascrecca/Spain/1460/2008(H7N9).
Assay [5] deals with recombinant soluble tetrameric N1 and N9 proteins (neuraminidase). In kind it is biochemical. The conditions noted are these: for IC50: read-out: inhibition of recombinant NA tetramers in enzymatic MUNANA assay (IC50 μM).
The test system of a further assay is NA of Neth09H1N1 virus. In kind it is biochemical, Influenza virus A/Netherlands/602/2009 (Neth09H1N1).
For assay [6], the system named is HA on virus particle (Neth09H1N1). Particulars: cited from earlier work.

Take `C#CCCCC[C@H](CC)O[C@@H]1OC(C(=O)O)=C[C@H](O)[C@H]1NC(C)=O` [Compound 12]: the “inhibition of virus-receptor binding (HA inhibition) by BLI” value (from here on “inhibition … (HA inhibition) by BLI”) in assay [1] is “significant HA binding”. Further, in assay [2], the “CPE assay” value is recorded as more than 5 mM and the “CPE reduction assay on MDCK cells, lowest concentration that inhibits CPE formation” value is more than 5 µM. Moreover, in assay [3], the “potency difference to OC (OC more potent)” value (shortened to “potency difference to OC”) is given as “ca. 600 fold” and the IC50 came out at 2.33 ± 0.005 µM. For the same compound, the “reduction of potency relative to parent OCM” value in assay [4] is reported as 6 fold. In assay [5], the “potency difference to OC” value is reported as “ca. 600 fold” and the IC50 came out at 6.4 ± 1 µM.

For the compound `C#CCCCC[C@H](CC)O[C@H]1OC(C(=O)O)=C[C@H](O)[C@H]1NC(C)=O` [Compound 14], in assay [4], the “IC50, NA (N9 Spain) MUNANA enzyme inhibition” value is “no inhibition”.

Turning to `C#CCCCC[C@@H](CC)O[C@H]1OC(C(=O)O)=C[C@H](O)[C@H]1NC(C)=O` [Compound 15], the “IC50, NA (N9 Spain) MUNANA enzyme inhibition” value in assay [4] is on record as “no inhibition”.

With `CC[C@@H](CCCCc1cn([C@H]2[C@H](OC(C)=O)[C@@H](OC(C)=O)[C@H](n3cc(CCCC[C@H](CC)O[C@@H]4OC(C(=O)O)=C[C@H](O)[C@H]4NC(C)=O)nn3)O[C@@H]2COC(C)=O)nn1)O[C@@H]1OC(C(=O)O)=C[C@H](O)[C@H]1NC(C)=O` [Compound 17a], in assay [2], the “CPE assay” value was more than 5 mM and the “CPE reduction assay on MDCK cells, lowest concentration that inhibits CPE formation” value is more than 5 µM. The IC50 in assay [3] was determined as 9.4 ± 0.4 µM. The half-inhibitory concentration (IC50) in assay [5] is 24.4 ± 17.5 µM.

Regarding `CC[C@@H](CCCCc1cn([C@H]2[C@H](O)[C@@H](O)[C@H](n3cc(-c4ccc(-c5cn([C@H]6[C@H](O)[C@@H](O)[C@H](n7cc(-c8ccc(-c9cn([C@@H]%10O[C@H](CO)[C@@H](n%11cc(CCCC[C@H](CC)O[C@@H]%12OC(C(=O)O)=C[C@H](O)[C@H]%12NC(C)=O)nn%11)[C@H](O)[C@H]%10O)nn9)cc8)nn7)O[C@@H]6CO)nn5)cc4)nn3)O[C@@H]2CO)nn1)O[C@@H]1OC(C(=O)O)=C[C@H](O)[C@H]1NC(C)=O` [Compound 21], in assay [1], the “inhibition of virus binding to the BLI sensor, compound alone” value is given as “sufficient to prevent apparent viral binding to the sensor”; the “inhibition … (HA inhibition) by BLI” value is reported as “largest effect”; the “inhibition of virus-receptor binding by BLI in the presence of OC (Figure 5a)” value is on record as “inhibited virus-receptor binding”. For the same compound, in assay [2], the “CPE assay” value was found to be 0.45 ± 0.4 mM; the “CPE reduction assay on MDCK cells, lowest concentration that inhibits CPE formation” value came to 0.45 ± 0.4 µM; the “amount needed to prevent cell killing (CPE) relative to IC50 in MUNANA assay with the whole virus” value turned out to be 4 fold; the “better CPE inhibitor than OC” value is given as “ca. 2 fold”. Further, in assay [3], the “multivalency enhancement in comparison with monovalent 12” value is 20–30 fold, the “potency difference to OC” value was “ca. 25 fold” and the concentration for half-maximal inhibition (IC50) was found to be 0.11 ± 0.004 µM. The “NA inhibition judged from virus re-binding to regenerated sensor” value with NA of Neth09H1N1 virus is “able to inhibit the NA”. In assay [5], the “potency difference to OC” value is listed as “ca. 100 fold” and the IC50 is 1.3 ± 0.4 µM.

`CC[C@@H](CCCCc1cn([C@H]2[C@H](O)[C@@H](O)[C@H](n3cc(-c4ccc(-c5cn([C@@H]6O[C@H](CO)[C@@H](n7cc(-c8cc(O)c(-c9cn([C@@H]%10O[C@H](CO)[C@@H](n%11cc(-c%12ccc(-c%13cn([C@@H]%14O[C@H](CO)[C@@H](n%15cc(CCCC[C@H](CC)O[C@@H]%16OC(C(=O)O)=C[C@H](O)[C@H]%16NC(C)=O)nn%15)[C@H](O)[C@H]%14O)nn%13)cc%12)nn%11)[C@H](O)[C@H]%10O)nn9)cc8O)nn7)[C@H](O)[C@H]6O)nn5)cc4)nn3)O[C@@H]2CO)nn1)O[C@@H]1OC(C(=O)O)=C[C@H](N)[C@H]1NC(C)=O` [Compound 24]: in assay [1], the “inhibition … (HA inhibition) by BLI” value is listed as “did not have increased inhibitory activity compared to monovalent 12”. Besides, in assay [2], the “CPE assay” value is reported as 0.84 ± 0.4 mM; the “CPE reduction assay on MDCK cells, lowest concentration that inhibits CPE formation” value worked out at 0.84 ± 0.4 µM; the “amount needed to prevent cell killing (CPE) relative to IC50 in MUNANA assay with the whole virus” value came to 0.2 fold. Moreover, the half-inhibitory concentration (IC50) in assay [3] came to 4.7 ± 0.9 µM. Besides, in assay [5], the IC50 stood at 10.6 ± 1.7 µM.

Take `CCC(CC)O[C@@H]1C=C(C(=O)O)C[C@H](N)[C@H]1NC(C)=O` [OC, oseltamivir carboxylate, reference compound]: in assay [2], the “CPE assay” value is listed as 1.0 ± 0.4 mM and the “CPE reduction assay on MDCK cells, lowest concentration that inhibits CPE formation” value amounted to 1.0 ± 0.4 µM. Also, the IC50 in assay [3] is 0.004 ± 0.001 µM. In addition, the “interference with HA-receptor binding” value in assay [6] was “does not interfere with HA-receptor binding”.

As for `CCC(CC)O[C@@H]1OC(C(=O)O)=C[C@H](O)[C@H]1NC(C)=O` [OCM, reference compound], the “inhibition … (HA inhibition) by BLI” value in assay [1] is on record as “can be observed”.

The record behind these values is paper PMC9150099, “Preventing Influenza A Virus Infection by Mixed Inhibition of Neuraminidase and Hemagglutinin by Divalent Inhibitors” (Journal of Medicinal Chemistry, 2022).
